# Patent publication US10220025B1, “Self-emulsifying formulation of CARP-1 functional mimetics” (Florida A&M University, priority 2016, dated 2019)
# Experiments:
# [1] = test system: MDA-MB-468 TNBC cells, wild type; experiment: MTT viability assay, parental MDA-MB-468; assay type: cell-based, human
# Experimental: (§1) In vitro inhibition of cell growth was assessed by MTT (3-[4, 5-dimethyltiazol-2-yl]-2.5-diphenyl tetrazolium bromide) reagent. Cells (5×10^3) were seeded in a 96-well culture plate and subsequently treated with respective agents at different concentrations as mentioned. Control cells were treated with 0.1% DMSO in culture medium. After treatment, the cells were incubated with 1 mg/ml of MTT reagent at 37° C. for 2-4 hours and then MTT was removed and 50 μL of DMSO was added, followed by colorimetric analysis using a multi-label plate reader at 560 nm (Victor3; PerkinElmer, Wellesley, Mass., USA).
# [2] = test system: MDA-MB-231 TNBC cells, wild type; experiment: MTT viability assay, parental MDA-MB-231; assay type: cell-based, human; conditions: 10 μM dose
# Experimental: as §1
# [3] = test system: H2461 malignant pleural mesothelioma (MPM) cells; experiment: MTT viability assay, MPM cells; assay type: cell-based, human; conditions: 20 μM; 24 h; FIG. 3A
# From the text: The current inventors' previous studies have indicated cancer cell growth inhibitory properties of CFMs in particular CFM-4 and CFM-5 [Puliyappadamba et al.]. […] J. Biomed. Nanotechnol. 2015; 11:1608-1627]. […] J. Biomed. Nanotechnol. 2015; 11:1608-1627]. On the basis of these findings, it was speculated that solubility and/or potency of the CFM-4 scaffold could be improved for its utility as a novel anti-TNBC molecule. To address this possibility, twelve (12) additional analogs of CFM-4 (Table 2) were synthesized using medicinal chemistry based structure activity relationship (SAR) studies. Each of the analog was suspended in DMSO, and their potency was evaluated in cell culture studies utilizing HeLa cervical cancer, MDA-MB-468 TNBC, and H2461 malignant pleural mesothelioma (MPM) cells by MTT based assays. […] Moreover, a 10 μM dose of CFM-4 inhibited MDA-MB-231 and MDA-MB-468 viabilities by ˜30% and 45%, respectively.
# [4] = test system: mammospheres of parental and drug-resistant MDA-MB-468 TNBC cells; experiment: three-dimensional mammosphere assay; assay type: cell-based, human
# Experimental: The TNBC cells were obtained from tumors derived from parental and drug-resistant cells or from a two-dimensional culture plate with ˜70-80% confluence. The cells were washed twice in 1×PBS and trypsinized following established protocols. The cells were pelleted at 200×g at room temperature, and re-suspended in 5 ml of mammosphere media (DMEM/F12 supplemented with 2 mM L-glutamine, 100 U/ml penicillin, […] streptomycin, 1×B27 supplement, 20 ng/ml recombinant human epidermal growth factor (EGF; Sigma), 10 ng/ml recombinant human basic fibroblast growth factor (bFGF; R&D Systems). The cell suspension of ˜5000 viable cells per ml was then seeded in an ultra-low adherent 60 mm plate and incubated at 37° C. and 5% CO2 for two weeks without disturbing the plates. After the mammospheres formed, fresh media with or without 10 μM CFM-4.16 was added and the cells incubated for additional 24 h at 37° C. and 5% CO2. The mammospheres in the untreated and treated plates were photographed, and the cells were then dissociated to determine their viabilities by the MTT assay as described [Lombardo Y, de Giorgio A, Coombes C R, Stebbing J, Castellano L. Mammosphere Formation Assay from Human Breast Cancer Tissues and Cell Lines. J. Vis. Exp. 2015; 97: e52671. doi:10.3791/52671].
# [5] = solubility observations; assay type: physicochemical
compound,measurement,setting,value
O=C1N(Cc2ccccc2Cl)c2ccccc2C12NN=C(c1cccc(Cl)c1)S2 (stereo not drawn) [CFM-4.16],inhibition / loss of cell viability,[1]; 10 μM dose,80-100%
same,inhibition of viability compared with CFM-4,"[1]; 20 μM, 24 h, FIG. 3A",greater inhibition of viability
same,inhibition / loss of cell viability,[2],80-100%
same,loss of viability compared with CFM-4,[3],greater loss of viability
same,mammosphere integrity,"[4]; 10 μM, 24 h, FIG. 15A",disintegration of mammospheres
same,viability of mammospheres vs DMSO-treated controls,"[4]; parental and ADR-resistant cells, FIG. 15B",robust decline in viability
same,aqueous solubility,[5],poor aqueous solubility
same,behaviour of DMA solution on addition of water,[5],immediately got precipitated
same,lipid solubility,[5],good lipid solubility
